# Assay results from article PMC5442318, “Hundreds of dual-stage antimalarial molecules discovered by a functional gametocyte screen” (Nature Communications, 2017).
# Like-named read-outs stand apart in the source and are kept apart here.
# Tests used:
# [1] = test system: P. falciparum stage V female gametocytes; test: P. falciparum female gametocyte activation assay (Pf FGAA), 24 h or 48 h preincubation, Pfs25 expression readout; format: cell-based, Plasmodium falciparum NF54; conditions: for Pf FGAA classification: SLOW / FAST / GAMETE from activity at 48h, 24h, 0h incubation
# Outline: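 Purified stage V gametocytes from P. falciparum NF54 gametocyte cultures were exposed to compounds for 24 h or 48 h at 37 °C under 3% O2/5% CO2, then activated by temperature drop plus xanthurenic acid. Activated females were stained with Cy3-anti-Pfs25 (0.5 μg ml^−1) for 24 h at 26 °C and counted by high-content imaging; pIC50 by nonlinear regression.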
# [2] = test system: P. falciparum female gametes; test: Pf FGAA with compounds added 30 min after triggering gametocyte activation (gamete-targeting); format: cell-based, Plasmodium falciparum NF54; conditions: 0h incubation time
# [3] = test system: P. falciparum stages IV–V gametocytes; test: Gametocytocidal ATP-depletion assay (gametocyte ATP bioluminescence); format: cell-based, Plasmodium falciparum; conditions: for inhibition at 2 µM: Plasmodium falciparum, mean
# Outline: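 Purified stage IV–V gametocytes (12,500/well) incubated with compound for 48 h at 37 °C under 3% O2/5% CO2. ATP measured by BacTiter-Glo luminescence as a viability surrogate; hits tested at 2 μM single concentration.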
# HepG2 cells = test: HepG2 cytotoxicity assay; format: cell-based
# Outline: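 Steps: equilibrate plates and detection reagent at room temperature (30 min); dispense CellTiter-Glo; allow 10 min at room temperature; record luminescence.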
# [4] = test system: P. falciparum asexual blood stages; conditions: cited from earlier work; for IC50: read-out: Pf Asexual blood stages XC50
# [5] = Plasmodium falciparum, 24h incubation time, read-out: Pf FGAA IC50 (µM) 24h
# [6] = Plasmodium falciparum, P. falciparum female gametocytes, mean, read-out: Gametocytes mean Pf FGAA IC50
# [7] = HepG2 TOX50 versus Pf FGAA IC50
# [8] = TCAMS asexual blood stage data, ref 1 (Gamo, F. J. et al., Nature 465, 305-310, 2010)
# [9] = TCAMS data, ref 1 (Gamo, F. J. et al., Nature 465, 305-310, 2010)
# [10] = 24h incubation time, read-out: Pf FGAA IC50 (µM) 24h
# [11] = mean, read-out: Gametocytes mean Pf FGAA IC50
# [12] = TCAMS data, ref 1 (Gamo et al., 2010)
# [13] = P. falciparum female gametocytes, mean, read-out: Gametocytes mean Pf FGAA IC50
# [14] = Plasmodium falciparum, mean, read-out: Gametocytes mean Pf FGAA IC50
Compound,"IC50 [1, 10] [µM]","IC50 [1, 11] [µM]",IC50 [2] [µM],Pf FGAA classification [1],HepG2 cells mean TOX50 (HepG2 cells; HepG2 cells; mean) [µM],"IC50 [4, 8] [nM]","Pf Asexual stages XC50 [4, 9] [nM]",Gametocytes mean ATP inhibition at 2µM (%) [3] [%],HepG2 cells mean TOX50 (HepG2 cells; mean) [µM],"IC50 [4, 12] [nM]","IC50 [1, 13] [µM]",Gametocytes mean ATP inhibition at 2µM [3] [%],other results
Clc1cc(Br)ccc1-c1ccc(CNCC2CCNCC2)o1 [TCMDC-124617],–,–,–,SLOW,4.37,1510,1510,–,–,–,–,–,"IC50 [1, 5]: > 20 µM; IC50 [1, 6]: 0.72 µM; IC50 ([2]; Plasmodium falciparum): > 20 µM; inhibition at 2 µM [3]: -8.62%; Selectivity ratio (HepG2 cells; [7]): 6.08"
CC(C)(C)c1ccc(CNCCOc2ccc(Nc3nnc(-c4ccc(-c5ncc[nH]5)cc4)o3)c3ccccc23)cc1.O=C(O)C(F)(F)F [TCMDC-138667],3.03,0.62,13.2,SLOW,–,–,140,-11.45,5.96,140,–,–,–
CC(Cc1ccc(NC(=O)c2ccc(CC(C)NCc3ccc(Cl)cc3)cc2)cc1)NCCc1cccc(Cl)c1 (stereo not shown) [TCMDC-139810],9.9,0.86,> 20,SLOW,–,–,450,-5.12,4.03,450,–,–,–
CCn1c(-c2nonc2N)nc2c(-c3cccc(NC(=O)Nc4ccc(Cl)cc4)c3)ncc(OCCCN)c21.O=C(O)C(F)(F)F [TCMDC-136152],6.65,1.7,> 20,SLOW,–,–,830,-4.09,10.96,830,–,–,–
O=C(c1ccc([N+](=O)[O-])o1)N1CCN(c2nc3c(Cl)cccc3s2)CC1 [TCMDC-124316],–,–,–,FAST,41.96,980,980,–,–,–,–,–,"IC50 [1, 5]: 1.38 µM; IC50 [1, 6]: 1.1 µM; IC50 ([2]; Plasmodium falciparum): > 20 µM; inhibition at 2 µM [3]: 0.49%; Selectivity ratio (HepG2 cells; [7]): 38.14"
CCN(CC)CCN(Cc1ccc(-c2ccc(Cl)cc2)cc1)C(=O)Cn1cc(CN(C)C)c(=O)nc1SCc1ccc(F)cc1 [TCMDC-140406],9.4,1.38,> 20,SLOW,–,–,750,-10.76,6.61,750,–,–,–
N#Cc1ccc(-c2ccc(C(=O)NCC3CCN(CCN4CCC(c5ccc6c(c5OCC(N)=O)CCCC6)CC4)CC3)cc2)cc1 [TCMDC-134563],5.88,–,> 20,SLOW,6.17,440,440,–,–,–,1.26,-20.83,–
FC(F)(F)c1ccc2[nH]c(-c3ccc(-c4ccc(CNCCN5CCNCC5)cc4)cc3)nc2c1.O=C(O)C(F)(F)F [TCMDC-132865],> 20,–,> 20,SLOW,16.43,1120,1120,–,–,–,1.41,-10.30,–
Clc1ccc(Nc2nc(NCc3ccccc3)nc(N/N=C/c3ccccn3)n2)cc1 [TCMDC-138557],–,–,–,FAST,–,–,780,–,13.96,780,–,–,"IC50 [1, 5]: 0.4 µM; IC50 [1, 14]: 0.26 µM; IC50 ([2]; Plasmodium falciparum): 2.98 µM; inhibition at 2 µM [3]: 35.7%; Selectivity ratio (HepG2 cells; HepG2 TOX50 vs Pf FGAA IC50): 53.35"
Cc1ccc(S(=O)(=O)N(CCCNCc2cccc(O)c2)c2ccccc2)cc1 [TCMDC-138022],–,–,–,SLOW,–,–,770,–,44.67,770,–,–,"IC50 [1, 5]: > 20 µM; IC50 [1, 14]: 1.14 µM; IC50 ([2]; Plasmodium falciparum): > 20 µM; inhibition at 2 µM [3]: 32%; Selectivity ratio (HepG2 cells; HepG2 TOX50 vs Pf FGAA IC50): 39.21"
O=C(NCC1CCN(Cc2cccc(C(F)(F)F)c2)C1)c1cc(-c2cccc(C(F)(F)F)c2)cs1.O=C(O)C(F)(F)F (stereo not shown) [TCMDC-134483],2.45,–,> 20,SLOW,16.22,610,610,–,–,–,1.65,-4.13,–
O=C(O)C(F)(F)F.O=c1[nH]ccc2nc(N[C@@H]3CCNC3)nc(Nc3cc(Cl)cc(Cl)c3)c12 [TCMDC-135052],2.57,–,15.1,SLOW,4.79,740,740,–,–,–,0.74,-43.72,–
O=C(CCC1CCCC1)N(Cc1ccc(-c2ccc(CNCCc3ccccc3)cc2)cc1)C1CCCNC1.O=C(O)C(F)(F)F (stereo not shown) [TCMDC-141444],6.85,–,15.3,SLOW,–,1220,1220,–,–,–,–,26.17,"IC50 ([1]; mean, P. falciparum female gametocyte activation assay, read-out: Gametocytes mean Pf FGAA IC50): 1.98 µM; HepG2 cells mean TOX50 (HepG2 cells; mean; HepG2 cells): 5.19 µM"
CC(C)c1ccc(CN2CCC(CNC(=O)c3cc(-c4cccc(C(F)(F)F)c4)cs3)C2)cc1.O=C(O)C(F)(F)F (stereo not shown) [TCMDC-134435],–,–,–,–,5.13,910,–,–,–,–,1.3,-4.54,–
COc1cccc(OC)c1CN1CCC(N(C)CCCCCCCCCN2CCC(OC(=O)Nc3ccccc3-c3ccccc3)CC2)CC1 [TCMDC-134690],–,–,–,–,1.91,320,–,–,–,–,1.31,15.06,–

# More lines, main results first:
"IC50 [1, 10] [µM]","IC50 [1, 11] [µM]",IC50 [2] [µM],Compound,Pf FGAA classification [1],HepG2 cells mean TOX50 (HepG2 cells; HepG2 cells; mean) [µM],"IC50 [4, 8] [nM]","Pf Asexual stages XC50 [4, 9] [nM]",Gametocytes mean ATP inhibition at 2µM (%) [3] [%],HepG2 cells mean TOX50 (HepG2 cells; mean) [µM],"IC50 [4, 12] [nM]","IC50 [1, 13] [µM]",Gametocytes mean ATP inhibition at 2µM [3] [%],other results
0.14,0.9,0.89,N=C(N)Nc1nc(-c2ccc(NCc3ccc(CNc4cccc(-c5csc(NC(=N)N)n5)c4)cc3)cc2)cs1 [TCMDC-140699],GAMETE,–,–,310,23.62,4.79,310,–,–,–
15.5,1.74,> 20,CC(=O)Nc1ccc2[nH]cc(C3CCN(CC4CCC(NC(=O)/C=C/c5ccc(Cl)c(Cl)c5)CC4)CC3)c2n1 (stereo not shown) [TCMDC-140114],SLOW,–,–,260,-7.40,13.49,260,–,–,–
17,–,> 20,Cc1ccc(C(C(=O)Nc2ccc(N3CCNCC3)c(Cl)c2)c2ccccc2)cc1 (stereo not shown) [TCMDC-134292],SLOW,11.89,840,840,–,–,–,0.66,19.42,–
1.75,1.38,> 20,O=C(Nc1ccc(-c2ccccc2)c(OCCN2CCNCC2)c1)c1ccc(-c2ccc(Cl)cc2)cc1 [TCMDC-138818],FAST,–,–,840,1.63,4.95,780,–,–,–
10,1.91,> 20,Cl.Fc1cc(Cl)ccc1Nc1ccnc2cc(-c3ccc(CN4CCNCC4)o3)ccc12 [TCMDC-138394],SLOW,–,–,280,1.31,12.05,280,–,–,–
2.22,1.09,> 20,O=C(Nc1cc(Cl)c(Cl)cc1NC(=O)c1cccc(-c2ccccc2)c1O)c1cccc(-c2ccccc2)c1O [TCMDC-139548],FAST,–,–,510,18.16,3.09,510,–,–,–
0.14,–,2.14,O=C(Nc1nc(-c2ccccn2)cs1)c1ccc(Br)s1 [TCMDC-123868],GAMETE,37.44,1060,1060,–,–,–,1.16,29.36,–
